Test results from patent publication US20130102631A1, “NOVEL MICROBIOCIDAL DIOXIME ETHER DERIVATIVES” (SYNGENTA CROP PROTECTION LLC, priority 2010, published 2013).

Columns and labels:
[1] = tested on: Blumeria graminis f. sp. tritici (Erysiphe graminis f. sp. tritici); experiment: Blumeria graminis f. sp. tritici / wheat / leaf disc preventative (powdery mildew on wheat); assay type: in vivo; details: foliar, wheat leaf segments cv. Kanzler, inoculated 1 day after application, assessed 6-8 days after application
Procedure, shortened: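 Wheat cv. Kanzler leaf segments on agar sprayed with formulated compound at 200 ppm, inoculated 1 day later with powdery mildew, incubated at 20° C, 60% RH (24 h dark then 12 h/12 h). Percent disease control versus untreated scored 6-8 days after application.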

[2] = tested on: Mycosphaerella graminicola (Septoria tritici); experiment: Mycosphaerella graminicola (Septoria tritici) / liquid culture (Septoria blotch); assay type: cell-based; details: Zymoseptoria tritici; at ≦200 ppm, liquid culture PDB, inhibition of growth photometrically 4-5 days after application; read-out: control of Mycosphaerella graminicola
[3] = tested on: Puccinia recondita f. sp. tritici; experiment: Puccinia recondita f. sp. tritici / wheat / leaf disc curative (brown rust); assay type: in vivo; details: foliar, wheat leaf segments cv Kanzler, 200 ppm applied 1 day after inoculation, assessed 6-8 days after application
Protocol: Puccinia recondita f. sp. tritici/Wheat/Leaf Disc Curative (Brown Rust): Wheat leaf segments cv Kanzler were placed on agar in 24-well plates. The leaf segments were inoculated with a spore suspension of the fungus. The plates were stored in darkness at 19° C. and 75% relative humidity. The formulated test compound diluted in water was applied at an application rate of 200 ppm 1 day after inoculation. […]-2.508; 5.561; 2.561; E/E-2.208; 2.513; 2.559; 2.556; 2.555; 2.374; 2.552; 2.537; 2.519; 2.516; 2.514; […].002; 2.512; E/E-2.507

Pyrenophora teres = Pyrenophora teres / barley / leaf disc preventative (net blotch); assay type: in vivo; details: foliar, barley leaf segments cv Hasso, inoculated two days after application, assessed 5-7 days after application
Protocol: Pyrenophora teres/Barley/Leaf Disc Preventative (Net Blotch): Barley leaf segments cv Hasso are placed on agar in a 24-well plate and sprayed with formulated test compound diluted in water at an application rate of 200 ppm. The leaf segments are inoculated with a spore suspension of the fungus two days after application of the test solution. The inoculated leaf segments are incubated at 20° C. and 65% relative humidity under a light regime of 12/12 h (light/dark) in a climate cabinet and the activity of a compound is assessed as disease control compared to untreated when an appropriate level of disease damage appears in untreated check leaf segments (5-7 days after application). […]-2.507; 5.561; 2.561; E/E-2.208; P.57; 2.513; 2.559; 2.558; 2.556; 2.555; 2.374; 2.552; 2.544; 2.537; 2.533; 2.530; 2.528; 2.519; 2.510; 2.516; 2.514; E/E-5.167; E/E-3.002; 2.512

[4] = tested on: Mycosphaerella arachidis (Cercospora arachidicola); experiment: Mycosphaerella arachidis (Cercospora arachidicola) / liquid culture (early leaf spot); assay type: cell-based; details: at ≦200 ppm, liquid culture PDB, inhibition of growth photometrically 4-5 days after application, read-out: control of Mycosphaerella arachidis
Procedure, shortened: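 Cryostored Cercospora arachidicola conidia were mixed into potato dextrose broth and added to test compound in DMSO. Incubation was at 24° C. Growth inhibition was read photometrically 4-5 days after application.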

COc1cccc(/C(C)=N/OCC(C)(C)CO/N=C2\CCCc3ccc(C)nc32)n1 [Compound 2.374]
≥ 80%: pest or weed control at 200 ppm [1] | inhibition of growth at up to 200 µg/mL [2] | pest or weed control at 200 ppm [3] | pest or weed control at 200 ppm (Pyrenophora teres) | inhibition of growth at up to 200 µg/mL [4]

C/C(=N\OCC(C)(C)CO/N=C1\CCCc2ccc(C)nc21)c1ccc2ccccc2n1 [Compound 2.512]
≥ 80%: pest or weed control at 200 ppm [1] | inhibition of growth at up to 200 µg/mL [2] | pest or weed control at 200 ppm [3] | pest or weed control at 200 ppm (Pyrenophora teres) | inhibition of growth at up to 200 µg/mL [4]

C/C(=N\OCC(C)(C)CO/N=C1\CCCc2ccc(C)nc21)c1ccc2c(n1)CCCC2 [Compound 2.513]
≥ 80%: pest or weed control at 200 ppm [1] | inhibition of growth at up to 200 µg/mL [2] | pest or weed control at 200 ppm [3] | pest or weed control at 200 ppm (Pyrenophora teres) | inhibition of growth at up to 200 µg/mL [4]

C/C(=N\OCCCO/N=C1\CCCc2ccc(C)nc21)c1cccc(-c2ccccc2)n1 [Compound 2.514]
≥ 80%: pest or weed control at 200 ppm [1] | inhibition of growth at up to 200 µg/mL [2] | pest or weed control at 200 ppm [3] | pest or weed control at 200 ppm (Pyrenophora teres) | inhibition of growth at up to 200 µg/mL [4]

CC/C(=N\OCC(C)(C)CO/N=C1\CCCc2ccc(C)nc21)c1ccccn1 [Compound 2.516]
≥ 80%: pest or weed control at 200 ppm [1] | inhibition of growth at up to 200 µg/mL [2] | pest or weed control at 200 ppm [3] | pest or weed control at 200 ppm (Pyrenophora teres) | inhibition of growth at up to 200 µg/mL [4]

C/C(=N/OCC(C)(C)CO/N=C1\CCCc2ccc(C)nc21)c1ccccn1 [Compound 2.519]
≥ 80%: pest or weed control at 200 ppm [1] | inhibition of growth at up to 200 µg/mL [2] | pest or weed control at 200 ppm [3] | pest or weed control at 200 ppm (Pyrenophora teres) | inhibition of growth at up to 200 µg/mL [4]

Cc1ccc2c(n1)/C(=N/OCC(C)(C)CO/N=C/c1cccc(Oc3ccccc3)n1)CCC2 [Compound 2.530]
≥ 80%: pest or weed control at 200 ppm [1] | inhibition of growth at up to 200 µg/mL [2] | pest or weed control at 200 ppm (Pyrenophora teres) | inhibition of growth at up to 200 µg/mL [4]

Cc1ccc(O)c(/C=N/OCC(C)(C)CO/N=C2\CCCc3ccc(C)nc32)n1 [Compound 2.533]
≥ 80%: pest or weed control at 200 ppm [1] | inhibition of growth at up to 200 µg/mL [2] | pest or weed control at 200 ppm (Pyrenophora teres) | inhibition of growth at up to 200 µg/mL [4]

C/C(=N\OCC(C)(C)CO/N=C1\CCCc2ccc(Cl)nc21)c1cc(C)cc(C)n1 [Compound 2.555]
≥ 80%: pest or weed control at 200 ppm [1] | inhibition of growth at up to 200 µg/mL [2] | pest or weed control at 200 ppm [3] | pest or weed control at 200 ppm (Pyrenophora teres) | inhibition of growth at up to 200 µg/mL [4]

C/C(=N\OCC(C)(C)CO/N=C1\CCCc2ccc(Oc3ccccc3)nc21)c1cc(C)cc(C)n1 [Compound 2.556]
≥ 80%: pest or weed control at 200 ppm [1] | inhibition of growth at up to 200 µg/mL [2] | pest or weed control at 200 ppm [3] | pest or weed control at 200 ppm (Pyrenophora teres) | inhibition of growth at up to 200 µg/mL [4]

C/C(=N\OCC(C)(C)CO/N=C1\CCCc2ccc(-c3cccc(C)n3)nc21)c1cc(C)cc(C)n1 [Compound 2.559]
≥ 80%: pest or weed control at 200 ppm [1] | inhibition of growth at up to 200 µg/mL [2] | pest or weed control at 200 ppm [3] | pest or weed control at 200 ppm (Pyrenophora teres) | inhibition of growth at up to 200 µg/mL [4]

C/C(=N\OCC(C)(C)CO/N=C1\CCCc2c1nc1ccccc1c2C)c1cc(C)cc(C)n1 [Compound 2.561]
≥ 80%: pest or weed control at 200 ppm [1] | inhibition of growth at up to 200 µg/mL [2] | pest or weed control at 200 ppm [3] | pest or weed control at 200 ppm (Pyrenophora teres) | inhibition of growth at up to 200 µg/mL [4]

C/C(=N\OCC1(CO/N=C2\CCCc3c2nc2ccccc2c3C)CC1)c1cc(C)cc(C)n1 [Compound 5.561]
≥ 80%: pest or weed control at 200 ppm [1] | inhibition of growth at up to 200 µg/mL [2] | pest or weed control at 200 ppm [3] | pest or weed control at 200 ppm (Pyrenophora teres) | inhibition of growth at up to 200 µg/mL [4]

C/C(=N\OCC(C)(C)CO/N=C1\CCCc2ccc(C)nc21)c1cccc(C)n1 [E/E-2.002]
≥ 80%: pest or weed control at 200 ppm [1] | inhibition of growth at up to 200 µg/mL [2] | pest or weed control at 200 ppm [3] | pest or weed control at 200 ppm (Pyrenophora teres) | inhibition of growth at up to 200 µg/mL [4]

C/C(=N\OCC(C)(C)CO/N=C1\CCCc2ccc(C)nc21)c1cc(C)cc(C)n1 [E/E-2.168]
≥ 80%: pest or weed control at 200 ppm [1] | inhibition of growth at up to 200 µg/mL [2] | pest or weed control at 200 ppm [3] | pest or weed control at 200 ppm (Pyrenophora teres) | inhibition of growth at up to 200 µg/mL [4]

Cc1cccc(/C(=N/OCC(C)(C)CO/N=C2\CCCc3ccc(C)nc32)c2ccccc2)n1 [E/E-2.474]
≥ 80%: pest or weed control at 200 ppm [1] | inhibition of growth at up to 200 µg/mL [2] | pest or weed control at 200 ppm [3] | pest or weed control at 200 ppm (Pyrenophora teres) | inhibition of growth at up to 200 µg/mL [4]

Cc1ccc2c(n1)/C(=N/OCC(C)(C)CO/N=C/c1ccc3ccccc3n1)CCC2 [E/E-2.507]
≥ 80%: inhibition of growth at up to 200 µg/mL [2] | pest or weed control at 200 ppm [3] | pest or weed control at 200 ppm (Pyrenophora teres) | inhibition of growth at up to 200 µg/mL [4]

C/C(=N\OCC(C)(C)CO/N=C1\CCCc2ccc(C)nc21)c1cccc(Br)n1 [E/E-2.508]
≥ 80%: inhibition of growth at up to 200 µg/mL [2] | pest or weed control at 200 ppm [3] | inhibition of growth at up to 200 µg/mL [4]

C=C(CO/N=C(\C)c1cccc(C)n1)CO/N=C1\CCCc2ccc(C)nc21 [E/E-3.002]
≥ 80%: pest or weed control at 200 ppm [1] | inhibition of growth at up to 200 µg/mL [2] | pest or weed control at 200 ppm [3] | pest or weed control at 200 ppm (Pyrenophora teres) | inhibition of growth at up to 200 µg/mL [4]

C/C(=N\OCC1(CO/N=C2\CCCc3ccc(C)nc32)CC1)c1cc(C)cc(C)n1 [E/E-5.167]
≥ 80%: pest or weed control at 200 ppm [1] | inhibition of growth at up to 200 µg/mL [2] | pest or weed control at 200 ppm [3] | pest or weed control at 200 ppm (Pyrenophora teres) | inhibition of growth at up to 200 µg/mL [4]
